This is an account of results in the NIST ThermoML archive (doi:10.1016/j.tca.2018.07.003).

For series [1] the following is noted: 295 K; 77 kPa; Liquid; transient hot wire.
The nature of series [2]: heat capacity at constant pressure per volume; wn = mass fraction of the nth substance listed. The settings on record: 295 K, 77 kPa, Liquid, From thermal conductivity and thermal effusivity measured separately.
A short description of series [3]: wn = mass fraction of the nth substance listed. The settings on record: 295 K, 77 kPa, Liquid, transient hot wire.

Numbers after ± are expanded uncertainties.

As for `CCCCCCC` [heptane], the thermal conductivity in series [1] was 0.119 ± 0.004 W/m/K.
`CC(C)CC(C)(C)C` [2,2,4-trimethylpentane] + CCCCCCC: the heat capacity is listed as 1390000 ± 90000 J/K/m3 in series [2] (w1 = 0.2); 1310000 ± 90000 J/K/m3 in series [2] (w1 = 0.4); 1310000 ± 80000 J/K/m3 in series [2] (w1 = 0.6); 1290000 ± 80000 J/K/m3 in series [2] (w1 = 0.8); 1340000 ± 90000 J/K/m3 in series [2] (w1 = 1). Further, the thermal conductivity in series [3] (w1 = 0.2) was 0.116 ± 0.004 W/m/K; in series [3] (w1 = 0.4), 0.113 ± 0.004 W/m/K; in series [3] (w1 = 0.6), 0.107 ± 0.004 W/m/K; in series [3] (w1 = 0.8) it was 0.104 ± 0.004 W/m/K; in series [3] (w1 = 1), 0.096 ± 0.004 W/m/K.
`CC(C)CC(C)(C)C` [2,2,4-trimethylpentane]: the thermal conductivity in series [1] is reported as 0.096 ± 0.004 W/m/K.
For the molecule `CO` [methanol], the thermal conductivity in series [1] is listed as 0.208 ± 0.008 W/m/K.
Same read-out and setting: the value for `O` [water] was 0.6 ± 0.02 W/m/K.
As for `CCCCCCC` [heptane] + CC(C)CC(C)(C)C, in series [2] (w2 = 0), the heat capacity is recorded as 1480000 ± 100000 J/K/m3. Moreover, the thermal conductivity in series [3] (w2 = 0) turned out to be 0.119 ± 0.004 W/m/K.
On to `OCC(O)CO` [glycerol], for which the thermal conductivity in series [1] turned out to be 0.289 ± 0.01 W/m/K.
For `OCCO` [1,2-ethanediol], the thermal conductivity in series [1] is recorded as 0.254 ± 0.01 W/m/K.
